# Where two headings read alike, the source gives them in different places.
# Tests used:
# Escherichia coli ATCC 26 = experiment: Antibacterial activity, agar dilution method (MIC); assay type: cell-based
# Text: (§1) The antibacterial activity as determined by the agar dilution method using a medium prepared by dissolving 3 g of Bacto-Tryptone (a product of Difco Laboratories), 3 g of a meat extract, 1 g of an yeast extract, 1 g of glucose and 16 g of agar in one liter of water (pH 7).
# EC: Escherichia coli ATCC 26
# [1] = test system: Bacillus subtilis No. 10707; experiment: Antibacterial activity, agar dilution method (MIC); assay type: cell-based
# Text: as §1
# BS: Bacillus subtilis No. 10707
# [2] = test system: Enterococcus faecium ATCC 10541; experiment: Antibacterial activity, agar dilution method (MIC); assay type: cell-based
# Text: as §1
# EF: Enterococcus faecium ATCC 10541
# [3] = test system: Staphylococcus aureus ATCC 6538P; experiment: Antibacterial activity, agar dilution method (MIC); assay type: cell-based; conditions: ATCC6538P
# Text: as §1
# SA: Staphylococcus aureus ATCC 6538P
# [4] = test system: Klebsiella pneumoniae ATCC 10031; experiment: Antibacterial activity, agar dilution method (MIC); assay type: cell-based
# Text: as §1
# KP: Klebsiella pneumoniae ATCC 10031
# P388 Leukemia = experiment: Antitumor activity against P388 leukemia in mice (increased life span); assay type: in vivo, CDF1 mice; conditions: Mus musculus, P388, ip, 720 h
# Procedure: Ascites were collected from the abdominal cavity of P388 ascites tumor-bearing cancer mice (DBA/2) on the 7th day after transplantation. A number of P388 cells in the ascites was counted, and a tumor cell floating liquid of 5×10^6 cells/ml was prepared using a physiological saline solution. Then, 0.2 ml of the solution containing 1×10^6 cells was transplanted into the abdominal cavity of CDF1 mice having a body weight of from 20 to 25 g.
# The effect of the test compound was determined in terms of the ratio of average survival days of the group administered with the test compound to average survival days of the control group (non-medicated group) (i.e., an increased life span, ILS%).
# [5] = Escherichia coli, ATCC26, pH 7, read-out: MIC (minimum growth inhibitory concentration), EC: Escherichia coli ATCC 26
# [6] = Bacillus subtilis, NO.10707, pH 7, read-out: MIC (minimum growth inhibitory concentration), BS: Bacillus subtilis No. 10707
# [7] = Enterococcus faecium, ATCC10541, pH 7, read-out: MIC (minimum growth inhibitory concentration), EF: Enterococcus faecium ATCC 10541
# [8] = Staphylococcus aureus, pH 7, read-out: MIC (minimum growth inhibitory concentration)
# [9] = Klebsiella pneumoniae, ATCC10031, pH 7, read-out: MIC (minimum growth inhibitory concentration)
# [10] = read-out: ILS (increased life span)
# [11] = ATCC26, EC: Escherichia coli ATCC 26, pH 7, read-out: MIC (minimum growth inhibitory concentration)
# [12] = BS: Bacillus subtilis No. 10707, pH 7, read-out: MIC (minimum growth inhibitory concentration)
# [13] = ATCC10541, EF: Enterococcus faecium ATCC 10541, pH 7, read-out: MIC (minimum growth inhibitory concentration)
# [14] = SA: Staphylococcus aureus ATCC 6538P, agar dilution, pH 7, read-out: MIC (minimum growth inhibitory concentration)
# [15] = ATCC10031, KP: Klebsiella pneumoniae ATCC 10031, agar dilution, pH 7, read-out: MIC (minimum growth inhibitory concentration)
# [16] = single i.p. 24 hours after transplantation, CDF1 mice, 30 days observation, read-out: ILS (increased life span)
# [17] = 4.0 mg/kg, single i.p. 24 hours after transplantation, CDF1 mice, 30 days observation, read-out: ILS (increased life span)
Compound,"MIC [1, 6] [µg/mL]","MIC [2, 7] [µg/mL]","MIC [3, 8] [µg/mL]","MIC [4, 9] [µg/mL]",MIC (Escherichia coli ATCC 26; [11]) [µg/mL],"MIC [1, 12] [µg/mL]","MIC [2, 13] [µg/mL]","MIC [3, 14] [µg/mL]","MIC [4, 15] [µg/mL]",further results
C/C1=C\C(OC(=O)c2cnc3ccccc3n2)C(=O)/C=C/C=C\c2csc(n2)C(C)N2C(=O)CC(C(C)(O)C(=O)SCc3oc(=O)oc3C)(CC1)[S+]2[O-] (stereo not drawn) [Compound 52],2.9,0.72,0.72,23,–,–,–,–,–,MIC (Escherichia coli ATCC 26; [5]): 92 µg/mL
C/C1=C\C(OC(=O)C2CCCCC2)C(=O)/C=C/C=C\c2csc(n2)C(C)NC(=O)CC2(CC1)[S+]([O-])SC(=O)C2(C)O (stereo not drawn) [Compound 6],–,–,–,–,3.7,0.028,0.91,0.91,7.3,ILS at 4 mg/kg (P388 Leukemia; [10]): 49%
CC1=CC(OC(=O)c2ccccn2)C(=O)C=CC=Cc2csc(n2)C(C)N2C(=O)CC(C(C)(O)C(=O)SCc3oc(=O)oc3C)(CC1)[S+]2[O-] (stereo not drawn) [Compound 143],0.16,0.33,0.16,0.65,–,–,–,–,–,ILS at 0.5 mg/kg (P388 Leukemia; [10]): 49%; MIC (Escherichia coli ATCC 26; [5]): 5.2 µg/mL
C/C1=C\C(OC(=O)CCCNC(=O)OCc2ccccc2)C(=O)/C=C/C=C\c2csc(n2)C(C)NC(=O)CC2(CC1)[S+]([O-])SC(=O)C2(C)O (stereo not drawn) [Compound 106],–,–,–,–,10,0.041,0.16,0.16,1.3,"ILS at 16 mg/kg (P388 Leukemia; 16 mg/kg, single i.p. 24 hours after transplantation, CDF1 mice, 30 days observation): 62%"
COCOC1/C=C(\C)CCC2(C(C)(O)C(=O)SCc3oc(=O)oc3C)CC(=O)N(C(C)c3nc(cs3)/C=C\C=C\C1=O)[S+]2[O-] (stereo not drawn) [Compound 58],–,–,–,–,46,0.72,0.72,0.72,2.9,–
C/C1=C\C(OC(=O)CNC(=O)OCc2ccccc2)C(=O)/C=C/C=C\c2csc(n2)C(C)NC(=O)CC2(CC1)[S+]([O-])SC(=O)C2(C)O (stereo not drawn) [Compound 97],–,–,–,–,0.65,0.33,0.041,0.041,0.81,ILS at 8 mg/kg (P388 Leukemia; [16]): 54%
C/C1=C\C(OC(=O)CNC(=O)CN(C)C(=O)OCc2ccccc2)C(=O)/C=C/C=C\c2csc(n2)C(C)NC(=O)CC2(CC1)[S+]([O-])SC(=O)C2(C)O (stereo not drawn) [Compound 114],–,–,–,–,11,0.037,0.037,0.037,1.2,ILS at 4 mg/kg (P388 Leukemia; [17]): 70%
"C/C1=C\C(OC2CCCCO2)C(=O)/C=C/C=C\c2csc(n2)C(C)N2C(=O)CC(C(C)(O)C(=O)SCc3oc(=O)oc3C)(CC1)[S+]2[O-] (single isomer, unassigned) [Compound 63]",0.081,0.65,0.65,5.2,–,–,–,–,–,"ILS at 2 mg/kg (P388 Leukemia; [10]): 48%; MIC (minimum growth inhibitory concentration) (Escherichia coli ATCC 26; EC: Escherichia coli ATCC 26, pH 7): 21 µg/mL"
C/C1=C\C(OC(=O)[C@H](C)NC(=O)OCc2ccccc2)C(=O)/C=C/C=C\c2csc(n2)C(C)NC(=O)CC2(CC1)[S+]([O-])SC(=O)C2(C)O (stereo partly drawn) [Compound 103],–,–,–,–,10,0.041,0.081,42,1.3,ILS at 4 mg/kg (P388 Leukemia; [17]): 52%
C/C1=C\C(OC(=O)CNC=O)C(=O)/C=C/C=C\c2csc(n2)C(C)NC(=O)CC2(CC1)[S+]([O-])SC(=O)C2(C)O (stereo not drawn) [Compound 99],–,–,–,–,2.6,0.041,0.041,0.041,0.041,ILS at 8 mg/kg (P388 Leukemia; [16]): 56%
CCC(=O)OC1/C=C(\C)CCC2(CC(=O)NC(C)c3nc(cs3)/C=C\C=C\C1=O)[S+]([O-])SC(=O)C2(C)O (stereo not drawn) [Compound 2],–,–,–,–,1.3,0.33,0.081,0.041,0.65,"ILS at 2 mg/kg (P388 Leukemia; 2.0 mg/kg, single i.p. 24 hours after transplantation, CDF1 mice, 30 days observation, read-out: ILS (increased life span)): 42%"
C/C1=C\C(OC2CCCCO2)C(=O)/C=C/C=C\c2csc(n2)C(C)NC(=O)CC2(CC1)[S+]([O-])SC(=O)C2(C)O (stereo not drawn) [Compound 18],0.041,0.16,0.16,2.6,–,–,–,–,–,MIC (Escherichia coli ATCC 26; [5]): 1.3 µg/mL
